Experiments:
Format in all cases: functional
[1] = tested on: Prevotella denticola; assay: Antibacterial activity against Prevotella denticola by CLSI M11-A6 agar dilution method in presence of beta-lactamase inhibitor Sulbactam
[2] = tested on: Hoylesella loescheii; assay: Antibacterial activity against Prevotella loescheii by CLSI M11-A6 agar dilution method in presence of beta-lactamase inhibitor Sulbactam
[3] = tested on: Prevotella intermedia; assay: Antibacterial activity against Prevotella intermedia by CLSI M11-A6 agar dilution method in presence of beta-lactamase inhibitor Sulbactam
[4] = tested on: Paraclostridium bifermentans; assay: Antibacterial activity against Clostridium bifermentans by CLSI M11-A6 agar dilution method in presence of beta-lactamase inhibitor Sulbactam
[5] = tested on: Prevotella oris; assay: Antibacterial activity against Prevotella oris by CLSI M11-A6 agar dilution method in presence of beta-lactamase inhibitor Sulbactam; details: Segatella oris
[6] = tested on: Streptococcus anginosus; assay: Antibacterial activity against Streptococcus anginosus by CLSI M11-A6 agar dilution method in presence of beta-lactamase inhibitor Sulbactam
[7] = tested on: Ruminococcus albus; assay: Antibacterial activity against Ruminococcus albus by CLSI M11-A6 agar dilution method in presence of beta-lactamase inhibitor Sulbactam; details: Hominimerdicola alba
[8] = tested on: Actinomyces naeslundii; assay: Antibacterial activity against Actinomyces naeslundii by CLSI M11-A6 agar dilution method in presence of beta-lactamase inhibitor Sulbactam
[9] = tested on: Clostridium beijerinckii; assay: Antibacterial activity against Clostridium beijerinckii by CLSI M11-A6 agar dilution method in presence of beta-lactamase inhibitor Sulbactam
[10] = tested on: Propionibacterium propionicum; assay: Antibacterial activity against Propionibacterium propionicus by CLSI M11-A6 agar dilution method in presence of beta-lactamase inhibitor Sulbactam; details: Arachnia propionica
[11] = tested on: Sutterella wadsworthensis; assay: Antibacterial activity against Sutterella wadsworthensis by CLSI M11-A6 agar dilution method in presence of beta-lactamase inhibitor Sulbactam
[12] = tested on: Fusobacterium mortiferum; assay: Antibacterial activity against Fusobacterium mortiferum by CLSI M11-A6 agar dilution method in presence of beta-lactamase inhibitor Sulbactam
[13] = tested on: Parvimonas micra; assay: Antibacterial activity against Peptostreptococcus micros by CLSI M11-A6 agar dilution method in presence of beta-lactamase inhibitor Sulbactam
[14] = tested on: Clostridium paraputrificum; assay: Antibacterial activity against Clostridium paraputrificum by CLSI M11-A6 agar dilution method in presence of beta-lactamase inhibitor Sulbactam
[15] = tested on: Clostridium subterminale; assay: Antibacterial activity against Clostridium subterminale by CLSI M11-A6 agar dilution method in presence of beta-lactamase inhibitor Sulbactam
[16] = tested on: Parabacteroides distasonis; assay: Antibacterial activity against Parabacteroides distasonis by CLSI M11-A6 agar dilution method in presence of beta-lactamase inhibitor Sulbactam
[17] = tested on: Clostridium spiroforme; assay: Antibacterial activity against Clostridium spiroforme by CLSI M11-A6 agar dilution method in presence of beta-lactamase inhibitor Sulbactam; details: Thomasclavelia spiroformis
[18] = tested on: Streptococcus intermedius; assay: Antibacterial activity against Streptococcus intermedius by CLSI M11-A6 agar dilution method in presence of beta-lactamase inhibitor Sulbactam
[19] = tested on: Prevotella buccae; assay: Antibacterial activity against Prevotella buccae by CLSI M11-A6 agar dilution method in presence of beta-lactamase inhibitor Sulbactam; details: Segatella buccae
[20] = tested on: Coprobacillus cateniformis; assay: Antibacterial activity against Coprobacillus cateniformis by CLSI M11-A6 agar dilution method in presence of beta-lactamase inhibitor Sulbactam
[21] = tested on: Anaerococcus tetradius; assay: Antibacterial activity against Anaerococcus tetradius by CLSI M11-A6 agar dilution method in presence of beta-lactamase inhibitor Sulbactam
[22] = tested on: Clostridium bolteae; assay: Antibacterial activity against Clostridium bolteae by CLSI M11-A6 agar dilution method in presence of beta-lactamase inhibitor Sulbactam; details: Enterocloster bolteae
[23] = tested on: Odoribacter splanchnicus; assay: Antibacterial activity against Bacteroides splanchnicus by CLSI M11-A6 agar dilution method in presence of beta-lactamase inhibitor Sulbactam
[24] = tested on: Peptostreptococcus anaerobius; assay: Antibacterial activity against Peptostreptococcus anaerobius by CLSI M11-A6 agar dilution method in presence of beta-lactamase inhibitor Sulbactam
[25] = tested on: Clostridium sp.; assay: Antibacterial activity against Clostridium sp. by CLSI M11-A6 agar dilution method in presence of beta-lactamase inhibitor Sulbactam
[26] = tested on: Ruminococcus torques; assay: Antibacterial activity against Ruminococcus torques by CLSI M11-A6 agar dilution method in presence of beta-lactamase inhibitor Sulbactam; details: Mediterraneibacter torques
[27] = tested on: Flavonifractor plautii; assay: Antibacterial activity against Clostridium orbiscindens by CLSI M11-A6 agar dilution method in presence of beta-lactamase inhibitor Sulbactam
[28] = tested on: Bacteroides thetaiotaomicron; assay: Antibacterial activity against Bacteroides thetaiotaomicron by CLSI M11-A6 agar dilution method in presence of beta-lactamase inhibitor Sulbactam
[29] = tested on: Catenibacterium mitsuokai; assay: Antibacterial activity against Catenibacterium mitsuokai by CLSI M11-A6 agar dilution method in presence of beta-lactamase inhibitor Sulbactam
[30] = tested on: Paeniclostridium sordellii; assay: Antibacterial activity against Clostridium sordellii by CLSI M11-A6 agar dilution method in presence of beta-lactamase inhibitor Sulbactam; details: Paraclostridium sordellii
[31] = tested on: Clostridium celerecrescens; assay: Antibacterial activity against Clostridium celerecrescens by CLSI M11-A6 agar dilution method in presence of beta-lactamase inhibitor Sulbactam; details: Lacrimispora celerecrescens
[32] = tested on: Bilophila wadsworthia; assay: Antibacterial activity against Bilophila wadsworthia by CLSI M11-A6 agar dilution method in presence of beta-lactamase inhibitor Sulbactam
[33] = tested on: Peptoniphilus asaccharolyticus; assay: Antibacterial activity against Peptoniphilus asaccharolyticus by CLSI M11-A6 agar dilution method in presence of beta-lactamase inhibitor Sulbactam
[34] = tested on: Blautia producta; assay: Antibacterial activity against Ruminococcus productus by CLSI M11-A6 agar dilution method in presence of beta-lactamase inhibitor Sulbactam
[35] = tested on: Blautia luti; assay: Antibacterial activity against Ruminococcus luti by CLSI M11-A6 agar dilution method in presence of beta-lactamase inhibitor Sulbactam

SMILES: CC1(C)S[C@@H]2[C@H](NC(=O)[C@H](N)c3ccccc3)C(=O)N2[C@H]1C(=O)O [AMPICILLIN]
- MIC50 [1]: ≤ 0.12 µg/mL
- MIC90 [1]: 2 µg/mL
- MIC50 [2]: ≤ 0.12 µg/mL
- MIC90 [2]: 2 µg/mL
- MIC50 [3]: ≤ 0.12 µg/mL
- MIC90 [3]: 2 µg/mL
- MIC50 [4]: 0.25 µg/mL
- MIC90 [4]: 1 µg/mL
- MIC50 [5]: ≤ 0.12 µg/mL
- MIC90 [5]: 2 µg/mL
- MIC50 [6]: 0.5 µg/mL
- MIC90 [6]: 0.5 µg/mL
- MIC50 [7]: ≤ 0.12 µg/mL
- MIC90 [7]: 1 µg/mL
- MIC50 [8]: 0.25 µg/mL
- MIC90 [8]: 1 µg/mL
- MIC50 [9]: 0.25 µg/mL
- MIC90 [9]: 1 µg/mL
- MIC50 [10]: 0.25 µg/mL
- MIC90 [10]: 1 µg/mL
- MIC [11]: 0.25 µg/mL
- MIC50 [12]: 2 µg/mL
- MIC90 [12]: 16 µg/mL
- MIC50 [13]: 0.25 µg/mL
- MIC90 [13]: 0.5 µg/mL
- MIC50 [14]: 0.25 µg/mL
- MIC90 [14]: 1 µg/mL
- MIC50 [15]: ≤ 0.12 µg/mL
- MIC90 [15]: 0.25 µg/mL
- MIC50 [16]: 8 µg/mL
- MIC90 [16]: 32 µg/mL
- MIC50 [17]: 0.25 µg/mL
- MIC90 [17]: 1 µg/mL
- MIC50 [18]: 0.5 µg/mL
- MIC90 [18]: 0.5 µg/mL
- MIC50 [19]: ≤ 0.12 µg/mL
- MIC90 [19]: 2 µg/mL
- MIC50 [20]: 0.25 µg/mL
- MIC90 [20]: 1 µg/mL
- MIC50 [21]: 0.25 µg/mL
- MIC90 [21]: 0.5 µg/mL
- MIC50 [22]: 8 µg/mL
- MIC90 [22]: 16 µg/mL
- MIC [23]: 1 µg/mL
- MIC50 [23]: 1 µg/mL
- MIC90 [23]: 4 µg/mL
- MIC50 [24]: 0.25 µg/mL
- MIC90 [24]: 0.5 µg/mL
- MIC50 [25]: 0.25 µg/mL
- MIC90 [25]: 1 µg/mL
- MIC50 [26]: ≤ 0.12 µg/mL
- MIC90 [26]: 1 µg/mL
- MIC50 [27]: 0.25 µg/mL
- MIC90 [27]: 1 µg/mL
- MIC50 [28]: 4 µg/mL
- MIC90 [28]: 16 µg/mL
- MIC50 [29]: 0.25 µg/mL
- MIC90 [29]: 1 µg/mL
- MIC50 [30]: 0.25 µg/mL
- MIC90 [30]: 1 µg/mL
- MIC50 [31]: 0.25 µg/mL
- MIC90 [31]: 1 µg/mL
- MIC50 [32]: 2 µg/mL
- MIC90 [32]: 4 µg/mL
- MIC50 [33]: 0.25 µg/mL
- MIC90 [33]: 0.5 µg/mL
- MIC50 [34]: ≤ 0.12 µg/mL
- MIC90 [34]: 1 µg/mL
- MIC50 [35]: ≤ 0.12 µg/mL
- MIC90 [35]: 1 µg/mL

Reference: ChEMBL document CHEMBL1671662, “In vitro activities of telavancin and six comparator agents against anaerobic bacterial isolates” (2009)
